Results as given in article PMC4129108, “The natural triterpene 3β,6β,16β-trihydroxy-lup-20(29)-ene obtained from the flowers of Combretum leprosum induces apoptosis in MCF-7 breast cancer cells” (BMC Complementary and Alternative Medicine, 2014).
Values after ≈ are worked out from the molar mass of the structure shown.

Legend:
[1] = tested on: MRC5 (lung normal fibroblast); test: XTT cell viability assay, MRC5 normal fibroblasts; format: cell-based; details: Homo sapiens
Method: (§1) The human cell lines MCF-7 (breast adenocarcinoma), HepG2 (hepatoma), T24 (bladder cancer), CACO-2 (colorectal adenocarcinoma) and MRC5 (lung normal fibroblast) were obtained from the Rio de Janeiro Cell Bank (Rio de Janeiro, RJ, Brazil). The HCT116 cell (colorectal carcinoma), and HT29 cell (colorectal adenocarcinoma) were kindly provided by Dr. Annette K. Larsen (Institut National de la Santé et de la Recherche Médicale - INSERM, Paris, França). All cell lines except MCF-7 were grown in DMEM supplemented with 10% or 20% (for CACO-2) FBS, 100 units.mL^-1 penicillin and 100 μg.mL^-1 streptomycin at 37°C in a humidified atmosphere of 5% CO2. MCF-7 cells were maintained in RPMI-1640 supplemented with 20% FBS at the same conditions described above.
(§2) The cytotoxic potential of the TTHL was evaluated by the XTT assay in human tumor cell lines as well as in MRC5 normal fibroblasts. Cells (1 × 10^4 cells) were seeded on 96-well plates in growth medium and incubated overnight. Afterwards, TTHL (0.5, 1.0, 2.5, 5.0, and 10 μg/mL) was added to each well and incubated for 24, 48, 72, and 120 h. Mitoxantrone, a cytostatic anthracenedione that intercalates in DNA and increases the incidence of double-strand breaks by stabilizing the cleavable complex of topoisomerase II and DNA, was used as positive control. At the end of each treatment, cell viability was assessed according to the manufacturer’s instructions. Briefly, after discarding the medium, 1 mL of XTT labeling mixture was added to the cells and incubated for 2 h at 37°C. Absorbance was measured with a SpectraMax reader (Bio-Rad, USA) at a test wavelength of 492 nm (A492) and a reference wavelength of 690 nm (A690). The final result corresponds to A492-A690. The absorbance of negative control cells was set as 100% viability, and the values for treated cells were calculated as a percentage of the control.
(§3) The IC20, IC50, and IC80 values and their 95% confidence intervals (CI 95%) were obtained by nonlinear regression using GraphPad Prism v5 program (Intuitive Software for Science, San Diego, CA, USA). Selective index (SI) was calculated by IC50 in MRC5 cells/IC50 in tumoral cells. All experiments were independently repeated at least three times, with triplicate samples for each treatment. Results are expressed as means ± standard deviation (SD). Data were analyzed by one-way analysis of variance (ANOVA), and means were compared using Tukey test, with P ≤ 0.05 considered as statistically significant.

[2] = tested on: MCF-7 (breast adenocarcinoma); test: XTT cell viability assay, MCF-7; format: cell-based, human; details: for IC50: XTT
Method: as §1, §2, §3

T24 (bladder cancer) = test: XTT cell viability assay, T24; format: cell-based, human; details: for IC50: Homo sapiens, XTT
Method: as §1, §2, §3

[3] = tested on: CACO-2 (colorectal adenocarcinoma); test: XTT cell viability assay, CACO-2; format: cell-based, human; details: for IC50: Homo sapiens, XTT
Method: as §1, §2, §3

MCF-7 cells = test: Apoptosis by flow cytometry (Annexin V-PE/7-AAD); format: cell-based, human; details: MCF-7, 24 h
Method: Cells (2 × 10^5 cells/mL) were seeded on 6-well tissue culture plates, and grown for 1 day up to 70–80% confluence before treatment with the test substance. The TTHL was added to medium with FBS to obtain the different concentrations, and cells were treated at 37°C for 24 h in humidified atmosphere containing 5% CO2.
Annexin V-PE was used in conjunction with a vital dye, 7-AAD, to distinguish apoptotic (Annexin V-PE positive, 7-AAD negative) from necrotic (Annexin V-PE positive, 7-AAD positive) cells. After treatment, cells were trypsinized, collected and resuspended in 40 μL of binding buffer with 2 μL Annexin V-PE. Cells were incubated for 15 min in the dark at room temperature. After incubation, 160 μL of binding buffer and 2 μL of 7-AAD were added. Cells were incubated for 5 min and additional 200 μL of binding buffer were added. Before analysis, cells were filtered through a cell strainer cap fitted to a polystyrene round bottom flow cytometric tube. Data were collected and analyzed by a FACS Calibur flow cytometer with CellQuest software, in a total of 10,000 events per sample; fluorescence was measured and the percentage of viable, early apoptotic, late apoptotic and necrotic cells was determined.

[4] = tested on: S. cerevisiae EG103 (SOD-WT); test: Yeast survival assay, EG103 (SOD-WT); format: cell-based, Saccharomyces cerevisiae; details: STAT cells, 1 h in PBS 30°C
Method: Media, solutions and buffers were prepared according to Burke et al.. YPD medium (0.5% yeast extract, 2% peptone, 2% glucose) was used for routine growth. Synthetic medium SC (0.67% yeast nitrogen base, 0.1% ammonium sulfate, 2% glucose) supplemented with the appropriate amino acids and bases ([…]) was used for the detection of mutations.
Stationary phase (STAT) cultures were obtained by inoculation of a single colony into liquid YPD. We chose to work in the stationary phase of growth because this resembles most cells of multicellular organisms in important aspects: (i) most energy comes from mitochondrial respiration; (ii) the cells have left the active cell cycle and have entered the Go phase; and (iii) damage accumulates over time.
STAT cells (1 × 10^8 cells/mL) were exposed to TTHL (10–500 μg/mL) and incubated under growth conditions for 1 h in PBS at 30°C. Cells were then washed and treated with H2O2 (5 mM) in PBS for another hour. Suitable aliquots were plated in triplicate on solid YPD (2–3 days, 30°C) and colony-forming units were counted. Sensitivity was expressed as a percentage of survival in relation to the negative control (solvent).

C=C(C)[C@@H]1CC[C@@]2(C)[C@H]1[C@H]1CC[C@@H]3[C@@]4(C)CC[C@H](O)C(C)(C)[C@@H]4[C@H](O)C[C@@]3(C)[C@]1(C)C[C@@H]2O [TTHL, 3β,6β,16β-trihydroxy-lup-20(29)-ene]
IC50 ([1]; MRC5, 24 h treatment): 8.4 ± 0.28 µg/mL (≈ 18.3 µM)
IC50 ([1]; MRC5, 48 h treatment): 7.6 ± 0.14 µg/mL (≈ 16.6 µM)
IC50 ([1]; MRC5, 72 h treatment): 7.4 ± 0.15 µg/mL (≈ 16.1 µM)
IC50 ([1]; MRC5, 120 h treatment): 6.84 ± 0.1 µg/mL (≈ 14.9 µM)
IC20 ([2]; Homo sapiens, MCF7, MCF-7, 24 h, determined by XTT assay, read-out: IC20 (20% inhibitory concentration)): 0.5 µg/mL (≈ 1.09 µM)
IC80 ([2]; Homo sapiens, MCF7, MCF-7, 24 h, determined by XTT assay, read-out: IC80 (80% inhibitory concentration)): 3.7 µg/mL (≈ 8.07 µM)
IC50 ([2]; Homo sapiens, MCF7, MCF-7, 24 h treatment): 1.36 ± 0.05 µg/mL (≈ 2.96 µM)
IC50 ([2]; Homo sapiens, MCF7, MCF-7, 48 h treatment): 0.73 ± 0.05 µg/mL (≈ 1.59 µM)
IC50 ([2]; Homo sapiens, MCF7, MCF-7, 72 h treatment): 0.63 ± 0.04 µg/mL (≈ 1.37 µM)
IC50 ([2]; Homo sapiens, MCF7, MCF-7, 120 h treatment): 0.3 ± 0.04 µg/mL (≈ 0.654 µM)
Selectivity index (SI) ([2]; IC50 in MRC5 cells/IC50 in MCF-7, 48 h): 10 X
Selectivity index (SI) ([2]; IC50 in MRC5 cells/IC50 in MCF-7, 72 h): 12 X
Selectivity index (SI) ([2]; IC50 in MRC5 cells/IC50 in MCF-7, 120 h): 23 X
IC50 (T24 (bladder cancer); T24, 24 h treatment): 5.55 ± 0.64 µg/mL (≈ 12.1 µM)
IC50 (T24 (bladder cancer); T24, 48 h treatment): 5.2 ± 0.42 µg/mL (≈ 11.3 µM)
IC50 (T24 (bladder cancer); T24, 72 h treatment): 1.09 ± 0.14 µg/mL (≈ 2.38 µM)
IC50 (T24 (bladder cancer); T24, 120 h treatment): 0.39 ± 0.1 µg/mL (≈ 0.85 µM)
Selectivity index (SI) (T24 (bladder cancer); IC50 in MRC5 cells/IC50 in T24, 24 h): 1.5 X
Selectivity index (SI) (T24 (bladder cancer); IC50 in MRC5 cells/IC50 in T24, 48 h): 1.5 X
Selectivity index (SI) (T24 (bladder cancer); IC50 in MRC5 cells/IC50 in T24, 72 h): 7 X
Selectivity index (SI) (T24 (bladder cancer); IC50 in MRC5 cells/IC50 in T24, 120 h): 17 X
IC50 ([3]; CACO-2, 24 h treatment): 8.55 ± 0.35 µg/mL (≈ 18.6 µM)
IC50 ([3]; CACO-2, 48 h treatment): 7.9 ± 0.28 µg/mL (≈ 17.2 µM)
IC50 ([3]; CACO-2, 72 h treatment): 6.35 ± 0.35 µg/mL (≈ 13.8 µM)
IC50 ([3]; CACO-2, 120 h treatment): 5 ± 0.19 µg/mL (≈ 10.9 µM)
Selectivity index (SI) ([3]; IC50 in MRC5 cells/IC50 in CACO-2, 24 h): MR (MR: more resistant in tumoral cells)
Selectivity index (SI) ([3]; IC50 in MRC5 cells/IC50 in CACO-2, 48 h): MR (MR: more resistant in tumoral cells)
Selectivity index (SI) ([3]; IC50 in MRC5 cells/IC50 in CACO-2, 72 h): 1 X
Selectivity index (SI) ([3]; IC50 in MRC5 cells/IC50 in CACO-2, 120 h): 1 X
apoptosis induced (% of MCF-7 cells) (MCF-7 cells; TTHL at IC50): 14%
percentage of necrotic cells (labeled with 7-AAD) (MCF-7 cells; TTHL at IC50): less than 5%
cells in early apoptosis (labeled with annexin V-PE) (MCF-7 cells; TTHL at IC80): approximately 55%
cells in late apoptosis (labeled with both annexin V-PE and 7-AAD) (MCF-7 cells; TTHL at IC80): 15%
percentage of necrotic cells (labeled with 7-AAD) (MCF-7 cells; TTHL at IC80): less than 5%
survival (percentage in relation to negative control) ([4]; TTHL 10 μg/mL): 100 ± 2.83%
survival (percentage in relation to negative control) ([4]; TTHL 50 μg/mL): 87.65 ± 5.16 %
survival (percentage in relation to negative control) ([4]; TTHL 100 μg/mL): 79.45 ± 1.91 %
survival (percentage in relation to negative control) ([4]; TTHL 500 μg/mL): 67.65 ± 3.04 %
